This experiment has as its target rat EP1 receptor (Rattus norvegicus (Rat), UniProt P70597). Briefly: Test for confirmation of EP1 receptor antagonism: inhibition of the prostaglandin E2-induced increase in intracellular calcium concentration in rat EP1 receptor-expressing COS-1 cells. The experiment is classed as cell-based. As to conditions: for IC50: prostaglandin E2 10 nM, rat EP1 receptor-expressing COS-1 cells. As to the method: (1) Preparation of Rat EP1 Expression Vector
Using Rat Kidney BD Marathon-Ready cDNA (Nippon Becton Dickinson Company, Ltd.) as a template, a forward primer shown in SEQ ID NO. 1, and a reverse primer shown in SEQ ID NO. 2, a first run of PCR was carried out using KOD-Plus-Ver 2.0 (Toyobo Co., Ltd.). Further, using this amplification product as a template, a forward primer shown in SEQ ID NO. 3, and a reverse primer shown in SEQ ID NO. 4, a second run of PCR was carried out in the same manner. The amplification product obtained by the second run of PCR was incorporated into a vector (pcDNA3.1 D/V5-His-TOPO (registered trademark), Invitrogen Japan K. K.). By a conventional method, the vector containing this amplification product was introduced to E. coli (One Shot TOP10 Competent Cells, Invitrogen Corporation) to transform. This transformed E. coli was cultured in an LB agar medium for one day. After the culture, colonies were selected and cultured in an LB liquid medium containing 50 μg/mL of ampicillin. After the culture, the vector was purified using a QIAprep Spin Miniprep Kit (Qiagen K. K.). The base sequence of the insertion site of this vector (SEQ ID NO. 5) was compared with the rat EP1 base sequence (Ptger1) registered as an accession number NM_013100 in well-known database (NCBI), and as a result, they all matched except for a single base. Further, the amino acid sequence translated by the base sequence completely matched the amino acid sequence of the rat EP1 receptor registered as an NCBI accession number NP_037232. Therefore, it was confirmed that the cloned gene sequence was a base sequence of the rat EP1 receptor and the obtained amino acid sequence was that of the rat EP1 receptor. The pcDNA3.1 D/V5-His-TOPO (registered trademark) to which the nucleic acid shown in SEQ ID NO. 5 had been inserted was taken as a rat EP1-expressing vector.
(2) Preparation of Rat EP1 Receptor-Expressing Cells
COS-1 cells (Dainippon Sumitomo Pharma Co., Ltd.) were cultured until it reached confluence in an incubator at 37° C. under a 5% CO2 gas condition, using a D-MEM liquid medium (high glucose and L-glutamine contained, Invitrogen Corporation) to which a penicillin-streptomycin solution (Invitrogen Corporation, final concentration: 100 U/mL as benzylpenicillin; 100 μg/mL as streptomycin) as an antibiotic, MEM nonessential amino acids (Invitrogen Corporation, final Concentration: 0.1 mM), and fetal calf serum (Sanko Junyaku Co., Ltd., final concentration: 10%) were added.
The cells that had reached confluence were stripped with 0.05% trypsin/0.53 mM EDTA 4Na (Invitrogen Japan K. K.) and resuspended in the liquid medium. The resuspended cells were diluted and cultured in the liquid medium at a spread ratio from 1:4 to 1:8.
The cells that had reached confluence were stripped with 0.05% trypsin/0.53 mM EDTA.4Na, and resuspended in a D-MEM liquid medium (high glucose and L-glutamine contained, Invitrogen Corporation) to which an MEM nonessential amino acid (final concentration: 0.1 mM) and fetal calf serum (final concentration: 10%) were added. In each well of a Poly D-lysine-coated 96-well microplate (BD BioCoat (registered trademark), Nippon Becton Dickinson Company, Ltd.), this resuspended cell suspension culture was prepared to be 5×10^4 cells/well in 100 μL of the liquid medium, and seeded thereon. After seeding, the cells were cultured in an incubator at 37° C. under a 5% CO2 gas condition. At a point when the cells for introduction of a rat EP1-expressing vector were adhered (about 2 hours after seeding), introduction of the rat EP1-expressing vector was carried out in the following order.
For introduction of the rat EP1-expressing vector, Lipofectamine 2000 (Invitrogen Japan K. K.) was used. […]

Where [1] appears, read: Method B: Calcium kit II Fluo 4, FDSS 7000.
The mark [2] stands for this setting: Method A: Fluo-4 NW Calcium Assay Kit, FlexStation.

Some results are limits rather than exact numbers.

rat EP1 receptor, sequence (P70597 whole entry): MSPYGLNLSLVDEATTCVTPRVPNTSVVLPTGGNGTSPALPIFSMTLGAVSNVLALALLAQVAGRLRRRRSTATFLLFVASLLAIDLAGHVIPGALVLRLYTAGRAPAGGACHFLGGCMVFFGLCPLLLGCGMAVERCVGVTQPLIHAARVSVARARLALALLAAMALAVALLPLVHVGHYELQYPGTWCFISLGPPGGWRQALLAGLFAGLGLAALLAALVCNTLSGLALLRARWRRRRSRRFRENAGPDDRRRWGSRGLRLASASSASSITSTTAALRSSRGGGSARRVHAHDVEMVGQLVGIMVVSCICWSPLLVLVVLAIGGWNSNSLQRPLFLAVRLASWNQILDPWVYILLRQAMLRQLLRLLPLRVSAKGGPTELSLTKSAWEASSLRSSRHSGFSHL

Turning to `COc1cc2cc(-c3ccoc3)n(Cc3cccc(C(=O)O)n3)c2cc1Cl` [Example 25-37, 6-(6-chloro-2-furan-3-yl-5-methoxyindol-1-ylmethyl)pyridine-2-carboxylic acid], the concentration for half-maximal inhibition (IC50) under setting [1] came to 27 nM. Take `COc1cc2cc(-c3ccccc3)n(Cc3cccc(C(=O)O)c3)c2cc1F` [Example 9-43, 3-(6-fluoro-5-methoxy-2-phenylindol-1-ylmethyl)benzoic acid]: the IC50 under setting [2] was found to be 13 nM.

As for `COc1cc2cc(-c3cccnc3)n(Cc3cccc(C(=O)O)n3)c2cc1Cl` [Example 25-42, 6-(6-chloro-5-methoxy-2-pyridin-3-ylindol-1-ylmethyl)pyridine-2-carboxylic acid], under setting [1], the half-maximal inhibitory concentration (IC50) was 28 nM. Still for that read-out and setting: with `COc1cc2cc(-c3ccsc3)n(Cc3cccc(C(=O)O)n3)c2cc1C` [Example 25-39, 6-(5-methoxy-6-methyl-2-thiophen-3-ylindol-1-ylmethyl)pyridine-2-carboxylic acid] the figure was 37 nM.

`COc1ccc2c(c1)cc(-c1ccsc1)n2Cc1cccc(C(=O)O)n1` [Example 9-35, 6-(5-methoxy-2-thiophen-3-ylindol-1-ylmethyl)pyridine-2-carboxylic acid]: the IC50 under setting [2] is 23 nM.

On to `COc1cc2cc(-c3ccc(F)cc3)n(Cc3cccc(C(=O)O)n3)c2cc1F` [Example 25-31, 6-[6-fluoro-2-(4-fluorophenyl)-5-methoxyindol-1-ylmethyl]pyridine-2-carboxylic acid], for which the IC50 under setting [1] is 33 nM. As for `Cc1ccc2c(c1)cc(-c1ccccc1)n2Cc1cccc(C(=O)O)c1` [Example 9-13, 3-(5-methyl-2-phenylindol-1-ylmethyl)benzoic acid], the half-inhibitory concentration (IC50) under setting [2] stood at 89 nM. For the molecule `COc1cc2cc(-c3ccccc3F)n(Cc3cccc(C(=O)O)n3)c2cc1F` [Example 25-28, 6-[6-fluoro-2-(2-fluorophenyl)-5-methoxyindol-1-ylmethyl]pyridine-2-carboxylic acid], the concentration for half-maximal inhibition (IC50) under setting [1] was found to be 28 nM. For the molecule “3-(5-methyl-2-phenylindol-1-yl)carboxylic acid [Comparative Example 1, reference compound]”, the IC50 under setting [2] was greater than 10000 nM. Moreover, the “EP1 receptor antagonism (in words)” value (as shown in Table 49) is recorded as “do not exhibit EP1 receptor antagonism”.

As for `COc1ccc2c(c1)cc(-c1ccccc1)n2Cc1csc(C(=O)O)n1` [Example 25-12], the IC50 under setting [1] was 55 nM. The same measure, in the same setting: with `COc1cc2cc(-c3ccsc3)n(Cc3cccc(C(=O)O)n3)c2cc1Cl` [Example 25-34, 6-(6-chloro-5-methoxy-2-thiophen-3-ylindol-1-ylmethyl)pyridine-2-carboxylic acid] the figure was 54 nM; with `COc1cc2cc(-c3ccccc3)n(Cc3ccc(C(=O)O)o3)c2cc1C` [Example 25-36, 5-[5-methoxy-6-methyl-2-phenylindol-1-ylmethyl]furan-2-carboxylic acid], 35 nM.

Consider `COc1ccc2c(c1)cc(-c1ccoc1)n2Cc1cccc(C(=O)O)c1` [Example 9-32, 3-(2-furan-3-yl-5-methoxyindol-1-ylmethyl)benzoic acid], for which the half-inhibitory concentration (IC50) under setting [2] was determined as 11 nM.

For the molecule `COc1cc2cc(-c3ccccc3)n(Cc3cccc(C(=O)O)n3)c2cc1C` [Example 25-16, 6-(5-methoxy-6-methyl-2-phenylindol-1-ylmethyl)pyridine-2-carboxylic acid], under setting [1], the IC50 amounted to 39 nM. Still for that read-out and setting: with `COc1ccc2c(c1)cc(-c1cccc(F)c1)n2Cc1ccc(C(=O)O)o1` [Example 25-11, 5-[2-(3-fluorophenyl)-5-methoxyindol-1-ylmethyl]furan-2-carboxylic acid] the figure was 34 nM. The same measure, in the same setting: as for `COc1cc2cc(-c3ccoc3)n(Cc3ccc(C(=O)O)o3)c2cc1Cl` [Example 25-38, 5-(6-chloro-2-furan-3-yl-5-methoxyindol-1-ylmethyl)furan-2-carboxylic acid], the figure is 22 nM. `COc1ccc2c(c1)cc(-c1ccsc1)n2Cc1cccc(C(=O)O)c1` [Example 9-25, 3-(5-methoxy-2-thiophen-3-ylindol-1-ylmethyl)benzoic acid]: the IC50 under setting [2] stood at 35 nM. For the molecule `COc1ccc2c(c1)cc(-c1cc(F)ccc1F)n2Cc1cccc(C(=O)O)n1` [Example 25-41, 6-[2-(2,5-difluorophenyl)-5-methoxyindol-1-ylmethyl)pyridine-2-carboxylic acid], under setting [1], the concentration for half-maximal inhibition (IC50) was found to be 25 nM. In the case of `COc1cc2cc(-c3ccccc3)n(Cc3ccc(C(=O)O)o3)c2cc1Cl` [Example 25-26, 5-[6 chloro-5-methoxy-2-phenylindol-1-ylmethyl]furan-2-carboxylic acid], the concentration for half-maximal inhibition (IC50) under setting [1] came out at 17 nM. With `COc1ccc2c(c1)cc(-c1ccccc1)n2Cc1cccc(C(=O)O)c1` [Example 9-1, 3-(5-methoxy-2-phenylindol-1-ylmethyl)benzoic acid], the IC50 under setting [2] amounted to 21 nM. With `COc1cc2cc(-c3cccc(F)c3)n(Cc3cccc(C(=O)O)n3)c2cc1F` [Example 25-29, 6-[6-fluoro-2-(3-fluorophenyl)-5-methoxyindol-1-ylmethyl]pyridine-2-carboxylic acid], the half-maximal inhibitory concentration (IC50) under setting [1] is 26 nM. With `CCC(C)c1cc2cc(OC)c(Cl)cc2n1Cc1cccc(C(=O)O)n1` (centres unmarked) [Example 25-44, 6-[6-chloro-5-methoxy-2-(1-methylpropyl)indol-1-ylmethyl]pyridine-2-carboxylic acid], the IC50 under setting [1] is 51 nM. As for `COc1ccc2c(c1)cc(-c1cccnc1)n2Cc1cccc(C(=O)O)c1` [Example 25-13, 3-(5-methoxy-2-pyridin-3-ylindol-1-ylmethyl)benzoic acid], the 50% inhibitory concentration (IC50) under setting [1] was 38 nM. On the same count and under the same terms, with `COc1ccc2c(c1)cc(-c1ccc(F)cc1)n2Cc1cccc(C(=O)O)c1` [Example 25-19, 3-[2-(4-fluorophenyl)-5-methoxyindol-1-ylmethyl]benzoic acid] the figure was 36 nM; with `COc1cc2cc(-c3cccnc3)n(Cc3cccc(C(=O)O)n3)c2cc1F` [Example 25-33, 6-(6-fluoro-5-methoxy-2-pyridin-3-ylindol-1-ylmethyl)pyridine-2-carboxylic acid], 58 nM. As for `COc1cc2cc(-c3cccc(F)c3)n(Cc3cccc(C(=O)O)n3)c2cc1Cl` [Example 25-23, 6-[6-chloro-2-(3-fluorophenyl)-5-methoxyindol-1-ylmethyl]pyridine-2-carboxylic acid], under setting [1], the IC50 amounted to 32 nM. On the same count and under the same terms, with `COc1ccc2c(c1)cc(-c1cccc(F)c1)n2Cc1cccc(C(=O)O)c1` [Example 25-18, 3-[2-(3-fluorophenyl)-5-methoxyindol-1-ylmethyl]benzoic acid] the figure was 17 nM. With `COc1ccc2c(c1)cc(C(C)C)n2Cc1cccc(C(=O)O)c1` [Example 9-15, 3-(2-isopropyl-5-methoxyindol-1-ylmethyl)benzoic acid], the IC50 under setting [2] is 22 nM. As for `COc1ccc2c(c1)cc(-c1ccccc1F)n2Cc1cccc(C(=O)O)c1` [Example 25-17, 3-[2-(2-fluorophenyl)-5-methoxyindol-1-ylmethyl]benzoic acid], the IC50 under setting [1] was 32 nM.

For `COc1ccc2c(c1)cc(-c1ccccc1)n2Cc1cccc(C(=O)O)c1F` [Example 9-44, 2-fluoro-3-(5-methoxy-2-phenylindol-1-ylmethyl)benzoic acid], the IC50 under setting [2] was 19 nM. Consider `COc1cc2cc(-c3ccccc3)n(Cc3cccc(C(=O)O)n3)c2cc1Cl` [Example 25-9, 6-(6-chloro-5-methoxy-2-phenylindol-1-ylmethyl)pyridine-2-carboxylic acid], for which the IC50 under setting [1] is 67 nM.

The values are drawn from US8680120B2, “Indole derivative or pharmaceutically acceptable salt thereof” (Kissei Pharmaceutical Co., Ltd., priority 2009, dated 2014).
